This is an account of results in patent publication US12642791B2, “Inhibitors of lysyl oxidases” (UNIVERSITY OF SOUTH CAROLINA, priority 2021, dated 2026).

One assay concerns the target T1, recombinant LOX (Homo sapiens, UniProt P28300).
T1 construct: purchased Novus, USA
T1 sequence (P28300 169-417): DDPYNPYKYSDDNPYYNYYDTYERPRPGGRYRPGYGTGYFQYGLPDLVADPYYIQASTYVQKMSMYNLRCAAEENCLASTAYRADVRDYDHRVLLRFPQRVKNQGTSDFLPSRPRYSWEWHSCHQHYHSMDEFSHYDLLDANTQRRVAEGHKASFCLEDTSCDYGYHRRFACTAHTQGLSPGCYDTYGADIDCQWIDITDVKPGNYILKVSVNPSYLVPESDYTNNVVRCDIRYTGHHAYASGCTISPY
The experiment in a line: Lysyl oxidase activity assay with recombinant LOX protein. Type of assay: biochemical. Particulars: for inhibition of recombinant LOX: 10 μM compound; for selectivity LOX versus LOXL2 / LOX family: recombinant proteins. The procedure: For in vitro lysyl oxidase activity (for recombinant proteins), Lysyl Oxidase Activity kit (Biovision, USA) was used according to manufacturer's instructions. Briefly, 1 μg of LOX (Novus, USA), 0.2 μg of LOXL1 (Abcam, USA) and 0.1 μg of LOXL2 (Abcam, USA) were incubated with the reagent mix in the presence of inhibitors or vehicle. Lysyl oxidase activity of the wells was measured in multimode reader (every 30 sec, total 2.5 hours) in […] mode.

Assay [1] deals with MDA-MB-231 cells embedded in collagen I. The experiment in a line: ECM crosslinking by collagen and fibronectin immunofluorescence staining. Type of assay: cell-based, human. The procedure: FIG. 31. […] A. Inhibition of LOX activity in MDA-MB-231 cells treated with 5 μM of the LOX inhibitors. B. Doxorubicin sensitization with 6232 and its analogs, 6403 and 6415, in 3D collagen-I culture. C. Collagen and fibronectin staining of vehicle or 6232 or 6403 or 6415-treated MDA-MB-231 cells embedded in collagen I. BAPN is used as a positive control.
Immunofluorescence staining of cells was done in μ-Slide 8-well glass bottom chambers (Ibidi, Germany). Cells were fixed with 4% paraformaldehyde for 20 min, permeabilized with 0.5% Triton X-100 for 10 min and blocked in 5% BSA-PBS. Samples were incubated with primary (Collagen I, Fibronectin, F-actin, a-SMA) and secondary Alexa Fluor 647 or 488-labeled antibodies for 1.5 hours at room temperature. Cells were also counterstained with DAPI for 5 min. Images were acquired using ZEN 2012 SP5 (Black) LSM 700 (Carl Zeiss, DE).

Assay [2] concerns cellular LOX activity, Caki-1. The experiment in a line: Cell-based LOX activity in kidney cancer cell line. Also on record: species or system human. On the procedure: (§1) FIG. 39. Inhibition of cellular LOX activity in pancreatic and kidney cancer cell lines. Inhibition of cellular LOX activity upon the treatment with BAPN, 6232, 6403 and 6415 in kidney cell line Caki-1 (A) and pancreatic cancer cell lines Mia-Paca-2 (B) and PANC1 (C).
(§2) For cell-based lysyl oxidase activity, fluorometric Lysly Oxidase Activity Assay Kit (Abcam, USA) was used according to manufacturer's instructions. Briefly, after the treatment, 50 μl of supernatant from each well was incubated with reagent mix and fluorescence measured in multimode-reader at Ex/Em=540/590 nm wavelength.

Assay [3] concerns cellular LOX activity, Mia-Paca-2. Kind of assay: Cell-based LOX activity in pancreatic cancer cell line. Further details: species or system human. On the procedure:
as §1, §2

Assay [4] deals with cellular LOX activity, PANC1. The assay is described as above. Further details: species or system human. The procedure:
as §1, §2

A further assay deals with T2, MAO-A (Homo sapiens, UniProt P21397).
T2 construct: purchased Active Motif, USA
T2 sequence (P21397 1-527): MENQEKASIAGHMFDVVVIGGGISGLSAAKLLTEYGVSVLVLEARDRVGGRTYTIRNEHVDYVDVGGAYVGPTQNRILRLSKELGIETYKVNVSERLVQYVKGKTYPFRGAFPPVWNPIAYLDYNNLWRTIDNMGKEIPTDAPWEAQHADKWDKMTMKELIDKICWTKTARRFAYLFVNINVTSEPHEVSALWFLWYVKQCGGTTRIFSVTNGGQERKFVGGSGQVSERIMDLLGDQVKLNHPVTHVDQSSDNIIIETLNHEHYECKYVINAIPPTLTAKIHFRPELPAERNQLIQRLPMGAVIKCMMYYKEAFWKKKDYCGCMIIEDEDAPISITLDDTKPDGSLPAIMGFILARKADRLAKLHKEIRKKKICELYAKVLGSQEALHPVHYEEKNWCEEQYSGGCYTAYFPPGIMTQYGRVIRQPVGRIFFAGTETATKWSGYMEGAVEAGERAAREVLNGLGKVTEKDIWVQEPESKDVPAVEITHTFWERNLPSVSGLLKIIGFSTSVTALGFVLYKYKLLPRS
Kind of assay: MAO-GLO assay. The settings on record: cell-free enzymatic activity assay. Type of assay: biochemical. The procedure: (§3) MAO-GLO assay (Promega, USA) was used to measure the MAO-A and MAO-B activity upon LOX inhibitor treatment according to the manufacturer's instructions. For the enzyme activity, substrate was used at a concentration of 160 μM and 16 μM for MAO-A and MAO-B, respectively. MAO-A and MAO-B enzymes (Active Motif, USA) were used in 0.2 μg/per well. Reaction mix, enzymes, and drugs (30, 10, 3, 1, 0.3, and 0.1 nM) were mixed and incubated for 3 hours at RT. Then, 50 μl of luciferin was added into wells and incubated for 20 min at RT. Luciferase signals were measured by using a multimode reader.

The next assay has as its target T3, MAO-B (Homo sapiens, UniProt P27338).
T3 construct: purchased Active Motif, USA
T3 sequence (P27338 1-520): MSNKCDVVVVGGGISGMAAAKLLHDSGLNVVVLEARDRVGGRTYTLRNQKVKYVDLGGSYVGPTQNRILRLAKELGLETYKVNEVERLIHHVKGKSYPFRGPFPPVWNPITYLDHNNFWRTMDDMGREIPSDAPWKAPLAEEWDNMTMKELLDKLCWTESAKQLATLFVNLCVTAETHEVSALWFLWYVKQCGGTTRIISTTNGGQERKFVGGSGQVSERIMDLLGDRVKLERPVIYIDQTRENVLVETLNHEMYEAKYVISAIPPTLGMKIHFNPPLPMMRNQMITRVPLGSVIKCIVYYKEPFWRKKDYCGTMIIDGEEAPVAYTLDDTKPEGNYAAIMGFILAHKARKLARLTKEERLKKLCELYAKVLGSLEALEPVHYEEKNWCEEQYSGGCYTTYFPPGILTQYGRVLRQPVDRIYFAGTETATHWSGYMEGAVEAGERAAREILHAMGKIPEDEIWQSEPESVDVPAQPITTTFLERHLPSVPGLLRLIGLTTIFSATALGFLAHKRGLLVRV
The experiment in a line: MAO-GLO assay. Type of assay: biochemical. Particulars: cell-free enzymatic activity assay. On the procedure:
as §3

With `Cc1nc(N)sc1-c1csc(Nc2ccc([N+](=O)[O-])cc2)n1` [compound 6232, 4-methyl-5-[2-(4-nitroanilino)thiazol-4-yl]thiazol-2-amine], at recombinant LOX, the “inhibition of recombinant LOX” value is “strongly inhibit”. Besides, in assay [1], the “ECM crosslinking (collagen and fibronectin staining)” value (shortened to “ECM crosslinking”) is “decrease in ECM crosslinking”. The “cellular LOX activity” value in assay [2], in assay [3] and in assay [4] was “inhibited cellular LOX activity” in each case. In addition, the MAO-A activity inhibition entry at MAO-A is on record as “did not inhibit”. On MAO-B, the MAO-B activity inhibition result was “did not inhibit”.

For `Cc1nc(N)sc1-c1csc(N(C)c2ccc(O)cc2)n1` [compound 6415, 4-[[4-(2-amino-4-methyl-thiazol-5-yl)thiazol-2-yl]-methyl-amino]phenol], at recombinant LOX, the “inhibition of recombinant LOX” value was “inhibits both LOX and LOXL2 recombinant proteins”. The “inhibition of recombinant LOX activity” value on recombinant LOX (5 and 10 uM) is “inhibited the activity of LOX and LOXL2 recombinant proteins”. Besides, the “selectivity LOX versus LOXL2 / LOX family” value at recombinant LOX is given as “more like a LOX/LOXL2 inhibitor”; at recombinant LOX (listed as 4-((2′-amino-4′-methyl-[4,5′-bithiazol]-2-yl)(methyl)amino)phenol) it was “non-selective inhibitor of the LOX family of enzymes”. For the same molecule, in assay [1], the “ECM crosslinking” value is “decrease in ECM crosslinking”. Moreover, the “cellular LOX activity” value in assay [2], in assay [3] and in assay [4] was “inhibited cellular LOX activity” in each case. For the same molecule, the MAO-A activity inhibition entry at MAO-A was “did not inhibit”. Moreover, the MAO-B activity inhibition result at MAO-B is “did not inhibit”.

`CC(=O)Nc1ccc(Nc2nc(-c3sc(N)nc3C)cs2)cc1` [compound 6403, N-[4-[[4-(2-amino-4-methyl-thiazol-5-yl)thiazol-2-yl]amino]phenyl]acetamide]: at recombinant LOX, the “inhibition of recombinant LOX” value is on record as “inhibits LOX recombinant protein”. At recombinant LOX, the “selectivity LOX versus LOXL2 / LOX family” value was “more potent and selective inhibitor against LOX compared to LOXL2”. Also, in assay [1], the “ECM crosslinking” value was “decrease in ECM crosslinking”. The “cellular LOX activity” value in assay [2], in assay [3] and in assay [4] was “inhibited cellular LOX activity” throughout. The MAO-A activity inhibition entry at MAO-A is “did not inhibit”. In addition, the MAO-B activity inhibition result at MAO-B is on record as “did not inhibit”.
